Experimental data: patent publication US11439606B2 (priority 2018, dated 2022)

What was measured:
Format in all cases: in vivo, rat
[1] = system: type I diabetic rats; test: Glycemia in STZ-induced type I diabetic rats treated with DMF; details: DMF 8 mg/kg daily ip
[2] = system: type I diabetic rats; test: Cholesterol and triglyceride levels in type I diabetic rats treated with DMF; details: versus untreated rats and known levels in non-diabetic rats; DMF 8 mg/kg daily ip
Procedure: (§1) Controlled test results were performed by, and under the direction of, the inventors, involving four type I diabetic rats, two of which were female and two were male, for the purpose of measuring the effectiveness of administering treatment in accordance with the present invention.

[3] = system: type I diabetic rats; test: Renal function tests (urea, serum creatinine) in type I diabetic rats treated with DMF; details: DMF 8 mg/kg daily ip
Procedure: as §1

[4] = system: type I diabetic rats; test: Liver function tests (bilirubin, aspartate aminotransferase, gamma glutamyltransferase, alkaline phosphatase) in type I diabetic rats treated with DMF; details: versus untreated control rats, DMF 8 mg/kg daily ip
Procedure: as §1

[5] = first rat, STZ-induced diabetes, average glycemia 440 mg % before treatment

Substance: dimethylformamide [DMF]
- glycemia level versus untreated rats (FIG. 1) ([1]; female and male type I diabetic rats): remaining significantly below female and male rats not receiving treatment
- blood glucose level after seven days of treatment [1, 5]: below 100 mg %
- blood glucose level four days after treatment [1, 5]: 94 mg %
- blood glucose level after seven days of treatment ([1]; second rat, STZ-induced diabetes, average glycemia 526 mg % before treatment): below 120 mg %
- cholesterol levels (FIG. 3) [2]: somewhat elevated
- triglycerides levels (FIG. 3) [2]: significantly lowered
- levels of serum creatinine (FIG. 4) ([3]; versus untreated type I diabetic rats and known levels in non-diabetic rats): not only lower than the untreated, type I diabetic control group, but also lower than known levels of serum creatinine in non-diabetic female and male rats
- levels of urea (FIG. 4) ([3]; versus untreated type I diabetic rats): below that of the untreated type I diabetic rats
- liver function (FIG. 5) [4]: either improved or not substantially different
